Patent US10010589B2, “Modified therapeutic agents, stapled peptide lipid conjugates, and compositions thereof” (priority 2013, dated 2018)
Read-outs that look alike come from different tables or passages of the source. *1 amine or outer side, *2 acyl side, *3 side chain or, on linkers, in order; H or OH if unused. Where a SMILES comes first, the peptide text is derived from it. Bridges are numbered along the chain shown (N, C = ends). [ ]: non-standard residue; d: D form. CH2CONH(CH2)4NHCOCH2 = O=C(C[*:1])NCCCCNC(=O)C[*:2]; CH2CONHCH2CH2NHCOCH2 = O=C(C[*:1])NCCNC(=O)C[*:2]; X1 = O=C(c1ccc(C[*:1])cc1)c1ccc(C[*:2])cc1

Tests used:
[1] = molecular target: T1, human glucagon-like peptide 1 receptor (GLP-1R) (Homo sapiens, UniProt P43220); experiment: cell-based
T1 construct: expressed in transfected cells
T1 sequence (P43220 24-463): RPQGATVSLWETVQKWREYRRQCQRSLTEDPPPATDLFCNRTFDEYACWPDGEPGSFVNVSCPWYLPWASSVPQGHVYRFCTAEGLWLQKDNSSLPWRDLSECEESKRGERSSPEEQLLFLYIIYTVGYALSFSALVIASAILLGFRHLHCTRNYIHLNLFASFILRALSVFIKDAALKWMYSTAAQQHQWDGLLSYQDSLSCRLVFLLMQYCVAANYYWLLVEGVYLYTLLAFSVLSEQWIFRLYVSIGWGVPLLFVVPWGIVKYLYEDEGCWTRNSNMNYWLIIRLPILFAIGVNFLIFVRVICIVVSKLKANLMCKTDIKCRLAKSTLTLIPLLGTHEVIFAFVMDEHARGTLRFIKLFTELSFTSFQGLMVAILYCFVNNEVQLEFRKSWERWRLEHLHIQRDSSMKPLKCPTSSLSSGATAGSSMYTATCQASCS
Procedure: (§1) HEK293 cells were infected with lent virus encoding firefly luciferase gene under the control of CRE promoter, as described in the manual (Qiagen, Netherlands) and then were selected using 1 μg/mL puromycin (Life technologies, Carlsbad) for 1 week. The survived cells were named as CRE-HEK293, expanded and then transfected with a G418 selective mammalian expression plasmid encoding human GCGR, GLP-1R, GIPR or GLP-2R. In brief, GCGR, GLP-1R, GIPR, or GLP-2R plasmid was transfected into CRE-HEK293 cells using Lipofectamine 2000 and selected with 400 μg/mL geneticin (Life technologies, Carlsbad, Calif.). Single colony stable cell lines overexpressing both CRE-luciferase and GCGR, GLP-1R, GIPR, or GLP-2R were then established for in vitro activity assays. These four stable cell lines were named as HEK293-GCGR-CRE, HEK293-GLP-1R-CRE, HEK293-GIPR-CRE, and HEK293-GLP-2R-CRE.
(§2) Cells were treated with different peptides in a dose dependent manner. On the next day, 10 μl of Bright-Glo reagent (Promega, Madison, Wis.) were added into each well and firefly luminescence was determined using an Envision multilabel plate reader (PerkinElmer, Waltham, Mass.). EC50 of each peptide was calculated using GraphPad Prism 6 software (GraphPad, San Diego, Calif.).

[2] = molecular target: T2, human glucagon receptor (GCGR) (Homo sapiens, UniProt P47871); experiment: GCGR CRE luciferase assay (receptor-mediated cAMP synthesis); format: cell-based
T2 construct: expressed in transfected cells
T2 sequence (P47871 26-477): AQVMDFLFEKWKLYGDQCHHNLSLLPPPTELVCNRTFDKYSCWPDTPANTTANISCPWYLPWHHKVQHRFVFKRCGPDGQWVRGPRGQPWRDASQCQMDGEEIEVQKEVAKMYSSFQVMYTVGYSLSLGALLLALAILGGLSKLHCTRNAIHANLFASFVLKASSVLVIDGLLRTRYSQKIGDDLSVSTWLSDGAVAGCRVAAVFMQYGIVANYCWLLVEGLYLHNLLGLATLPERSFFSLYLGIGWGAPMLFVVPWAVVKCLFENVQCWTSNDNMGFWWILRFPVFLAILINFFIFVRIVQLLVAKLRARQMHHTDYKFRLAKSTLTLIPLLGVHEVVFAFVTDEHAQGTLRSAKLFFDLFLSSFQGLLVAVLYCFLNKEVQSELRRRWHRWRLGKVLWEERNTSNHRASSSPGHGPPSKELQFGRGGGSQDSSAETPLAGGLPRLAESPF
Procedure: (§3) CREB responsive luciferase stable HEK 293 cell line overexpressing human glucagon receptor (GCGR), glucagon-like peptide 1 receptor (GLP-1R), Glucose-dependent insulinotropic polypeptide receptor (GIPR), or Glucagon-like peptide 2 receptor (GLP-2R) was generated as follows.
as §1
as §2, with “HEK293-GCGR-CRE, HEK293-GLP-1R-CRE, HEK293-GIPR-CRE, and HEK293-GLP-2R-CRE cells were seeded in a white 384-well plate at a density of 5,000 cells per well and cultured for 24 hours. Cells” for “Cells”

[3] = molecular target: T3, human Glucose-dependent insulinotropic polypeptide receptor (GIPR) (Homo sapiens, UniProt P48546); experiment: GIPR CRE luciferase assay (receptor-mediated cAMP synthesis); format: cell-based
T3 construct: expressed in transfected cells
T3 sequence (P48546 22-466): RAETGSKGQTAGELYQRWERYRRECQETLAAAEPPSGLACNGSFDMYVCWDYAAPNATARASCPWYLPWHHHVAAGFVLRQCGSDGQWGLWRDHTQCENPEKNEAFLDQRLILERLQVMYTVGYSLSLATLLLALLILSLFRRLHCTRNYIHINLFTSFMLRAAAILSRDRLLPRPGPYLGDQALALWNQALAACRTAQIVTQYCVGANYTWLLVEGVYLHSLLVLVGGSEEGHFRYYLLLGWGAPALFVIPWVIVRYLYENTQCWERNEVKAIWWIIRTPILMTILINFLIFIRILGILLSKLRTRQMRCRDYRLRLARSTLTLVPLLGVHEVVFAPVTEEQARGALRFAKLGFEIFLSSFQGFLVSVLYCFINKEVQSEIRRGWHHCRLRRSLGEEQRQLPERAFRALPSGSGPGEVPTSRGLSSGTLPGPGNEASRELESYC
Procedure: as §3
as §1, with “Single colony stable cell lines overexpressing both CRE-luciferase and GCGR, GLP-1R, GIPR, or GLP-2R were then established for in vitro activity assays. These four stable cell lines were named as HEK293-GCGR-CRE, HEK293-GLP-1R-CRE, HEK293-GIPR-CRE, and HEK293-GLP-2R-CRE.” left out
as §2, with “HEK293-GCGR-CRE, HEK293-GLP-1R-CRE, HEK293-GIPR-CRE, and HEK293-GLP-2R-CRE cells” for “Cells”, “seeded” for “treated with different peptides”, “white 384-well plate at a density of 5,000 cells per well and cultured for 24 hours. […]” for “dose dependent manner.”

[4] = HEK293-GLP-1R-CRE cells, luciferase readout, Table 6, read-out: GLP-1R (EC50)

## CC[C@H](C)[C@H](NC(=O)[C@H](CC(N)=O)NC(=O)[C@H](CC(N)=O)NC(=O)[C@H](CCCNC(=N)N)NC(=O)[C@H](CC(N)=O)NC(=O)[C@H](CCCNC(=N)N)NC(=O)[C@H](CCCCN)NC(=O)[C@@H](NC(=O)[C@H](CC(N)=O)NC(=O)[C@H](CCSC)NC(=O)[C@H](CC(C)C)NC(=O)[C@H](Cc1c[nH]c2ccccc12)NC(=O)[C@@H]1CSCC(=O)NCCCCNC(=O)CSC[C@H](NC(=O)[C@H](CCC(=O)O)NC(=O)[C@H](CC(=O)O)NC(=O)[C@H](CC(C)C)NC(=O)[C@H](Cc2ccc(O)cc2)NC(=O)[C@H](CCCCN)NC(=O)[C@H](CO)NC(=O)[C@H](Cc2ccc(O)cc2)NC(=O)[C@H](CC(=O)O)NC(=O)[C@H](CO)NC(=O)[C@@H](NC(=O)[C@H](Cc2ccccc2)NC(=O)[C@@H](NC(=O)CNC(=O)[C@H](CCC(=O)O)NC(=O)[C@@H](C)NC(=O)[C@@H](N)Cc2ccc(O)cc2)[C@@H](C)O)[C@@H](C)CC)C(=O)N[C@@H](C)C(=O)N[C@@H](C)C(=O)N[C@@H](CCCCN)C(=O)N[C@@H](CCC(=O)O)C(=O)N[C@@H](Cc2ccccc2)C(=O)N[C@@H]([C@@H](C)CC)C(=O)N1)[C@@H](C)O)C(=O)N[C@@H](C)C(N)=O [mTA44] (H-Y[dA]EGTFISDYSKYLDECAAKEFICWLMNTKRNRNNIA-NH2; linker 17-24 via CH2CONH(CH2)4NHCOCH2)
[1]; HEK293-GLP-1R-CRE cells, luciferase readout, Table 8, read-out: GLP-1R (EC50)
  EC50: 9.7 nM
[2]
  EC50: 1.6 nM
[3]; HEK293-GIPR-CRE cells, luciferase readout, Table 8, read-out: GIP-R (EC50)
  EC50: 0.04 nM

## CC[C@H](C)[C@H](NC(=O)[C@H](CC(N)=O)NC(=O)[C@H](CC(N)=O)NC(=O)[C@H](CCCNC(=N)N)NC(=O)[C@H](CC(N)=O)NC(=O)[C@H](CCCNC(=N)N)NC(=O)[C@H](CCCCN)NC(=O)[C@@H](NC(=O)[C@H](CC(N)=O)NC(=O)[C@H](CCSC)NC(=O)[C@H](CC(C)C)NC(=O)[C@H](Cc1c[nH]c2ccccc12)NC(=O)[C@@H]1CSCc2ccc(cc2)C(=O)c2ccc(cc2)CSC[C@H](NC(=O)[C@H](CCC(=O)O)NC(=O)[C@H](CC(=O)O)NC(=O)[C@H](CC(C)C)NC(=O)[C@H](Cc2ccc(O)cc2)NC(=O)[C@H](CCCCN)NC(=O)[C@H](CO)NC(=O)[C@H](Cc2ccc(O)cc2)NC(=O)[C@H](CC(=O)O)NC(=O)[C@H](CO)NC(=O)[C@@H](NC(=O)[C@H](Cc2ccccc2)NC(=O)[C@@H](NC(=O)CNC(=O)[C@H](CCC(N)=O)NC(=O)[C@@H](CO)NC(=O)[C@@H](N)Cc2c[nH]cn2)[C@@H](C)O)[C@@H](C)O)C(=O)N[C@@H](C)C(=O)N[C@@H](C)C(=O)N[C@@H](CCCCN)C(=O)N[C@@H](CCC(=O)O)C(=O)N[C@@H](Cc2ccccc2)C(=O)N[C@@H]([C@@H](C)CC)C(=O)N1)[C@@H](C)O)C(=O)N[C@@H](C)C(N)=O [mTA21] (H-H[dS]QGTFTSDYSKYLDECAAKEFICWLMNTKRNRNNIA-NH2; linker 17-24 via X1)
[1]; [4]
  EC50: 0.12 nM
[2]
  EC50: 0.7 nM

## CC[C@H](C)[C@@H]1NC(=O)[C@H](Cc2ccccc2)NC(=O)[C@H](CCC(=O)O)NC(=O)[C@H](CCCCN)NC(=O)[C@H](C)NC(=O)[C@H](C)NC(=O)[C@@H](NC(=O)[C@H](CCC(=O)O)NC(=O)[C@H](CC(=O)O)NC(=O)[C@H](CC(C)C)NC(=O)[C@H](Cc2ccc(O)cc2)NC(=O)[C@H](CCCCN)NC(=O)[C@H](CO)NC(=O)[C@H](Cc2ccc(O)cc2)NC(=O)[C@H](CC(=O)O)NC(=O)[C@H](CO)NC(=O)[C@@H](NC(=O)[C@H](Cc2ccccc2)NC(=O)[C@@H](NC(=O)CNC(=O)[C@H](CCC(N)=O)NC(=O)[C@@H](CO)NC(=O)[C@@H](N)Cc2c[nH]cn2)[C@@H](C)O)[C@@H](C)O)CSCC(=O)NCCCCNC(=O)CSC[C@@H](C(=O)N[C@@H](Cc2c[nH]c3ccccc23)C(=O)N[C@@H](CC(C)C)C(=O)N[C@@H](CC(C)C)C(=O)N[C@@H](CCCNC(=N)N)C(=O)N[C@@H](C)C(N)=O)NC1=O [mTA29] (H-H[dS]QGTFTSDYSKYLDECAAKEFICWLLRA-NH2; linker 17-24 via CH2CONH(CH2)4NHCOCH2)
[1]; [4]
  EC50: 0.03 nM
[2]
  EC50: 0.03 nM

## CC[C@H](C)[C@H](NC(=O)[C@H](CC(N)=O)NC(=O)[C@H](CC(N)=O)NC(=O)[C@H](CCCNC(=N)N)NC(=O)[C@H](CC(N)=O)NC(=O)[C@H](CCCNC(=N)N)NC(=O)[C@H](CCCCN)NC(=O)[C@@H](NC(=O)[C@H](CC(N)=O)NC(=O)[C@H](CCSC)NC(=O)[C@H](CC(C)C)NC(=O)[C@H](Cc1c[nH]c2ccccc12)NC(=O)[C@@H]1CSCC(=O)NCCNC(=O)CSC[C@H](NC(=O)[C@H](CCC(=O)O)NC(=O)[C@H](CC(=O)O)NC(=O)[C@H](CC(C)C)NC(=O)[C@H](Cc2ccc(O)cc2)NC(=O)[C@H](CCCCN)NC(=O)[C@H](CO)NC(=O)[C@H](Cc2ccc(O)cc2)NC(=O)[C@H](CC(=O)O)NC(=O)[C@H](CO)NC(=O)[C@@H](NC(=O)[C@H](Cc2ccccc2)NC(=O)[C@@H](NC(=O)CNC(=O)[C@H](CCC(N)=O)NC(=O)[C@@H](CO)NC(=O)[C@@H](N)Cc2c[nH]cn2)[C@@H](C)O)[C@@H](C)O)C(=O)N[C@@H](C)C(=O)N[C@@H](C)C(=O)N[C@@H](CCCCN)C(=O)N[C@@H](CCC(=O)O)C(=O)N[C@@H](Cc2ccccc2)C(=O)N[C@@H]([C@@H](C)CC)C(=O)N1)[C@@H](C)O)C(=O)N[C@@H](C)C(N)=O [mTA24] (H-H[dS]QGTFTSDYSKYLDECAAKEFICWLMNTKRNRNNIA-NH2; linker 17-24 via CH2CONHCH2CH2NHCOCH2)
[1]; [4]
  EC50: 0.2 nM
[2]
  EC50: 3 nM

## CC[C@H](C)[C@H](NC(=O)[C@H](CO)NC(=O)[C@H](Cc1ccc(O)cc1)NC(=O)[C@H](CC(=O)O)NC(=O)[C@H](CO)NC(=O)[C@@H](NC(=O)[C@H](Cc1ccccc1)NC(=O)[C@@H](NC(=O)CNC(=O)[C@H](CCC(=O)O)NC(=O)[C@@H](C)NC(=O)[C@@H](N)Cc1ccc(O)cc1)[C@@H](C)O)[C@@H](C)O)C(=O)N[C@@H](Cc1ccc(O)cc1)C(=O)N[C@@H](CC(C)C)C(=O)N[C@@H](CC(=O)O)C(=O)N[C@@H](CCCCN)C(=O)N[C@H]1CSCC(=O)NCCCCNC(=O)CSC[C@@H](C(=O)N[C@@H](Cc2c[nH]c3ccccc23)C(=O)N[C@@H](CC(C)C)C(=O)N[C@@H](CC(C)C)C(=O)N[C@@H](C)C(=O)NCC(=O)NCC(=O)N2CCC[C@H]2C(=O)N[C@@H](CO)C(=O)N[C@@H](CO)C(=O)NCC(=O)N[C@@H](C)C(=O)N2CCC[C@H]2C(=O)N2CCC[C@H]2C(=O)N2CCC[C@H]2C(=O)N[C@@H](CO)C(=O)N[C@@H](CCCCN)C(N)=O)NC(=O)[C@H](C(C)C)NC(=O)[C@H](Cc2ccccc2)NC(=O)[C@H](CCC(=O)O)NC(=O)[C@H](CCCCN)NC(=O)[C@H](C)NC(=O)[C@H](C)NC1=O [mTA40] (H-Y[dA]EGTFTSDYSIYLDKCAAKEFVCWLLAGGPSSGAPPPSK-NH2; linker 17-24 via CH2CONH(CH2)4NHCOCH2)
[1]
  EC50: 0.02 nM
[3]
  EC50: 0.02 nM
